Publication PMC10652874, “Investigation into the mechanism of action of the antimicrobial peptide epilancin 15X” (Frontiers in Microbiology, 2023)

What was measured:
[1] = tested on: LiaRS response in B. subtilis BSF2470; assay: LiaRS disk diffusion reporter assay (β-galactosidase, X-Gal); type: cell-based, Bacillus subtilis; conditions: 37°C overnight
Method: The LiaRS response was determined via disk diffusion as described previously ([Mascher et al., 2004]). Briefly, B. subtilis strain BSF2470 was grown in LB supplemented with erythromycin (1 μg/mL) overnight at 37°C with shaking. A total of 20 μL of overnight culture was mixed with 100 μL of 20 mg/mL X-Gal (dissolved in DMF) and 5 mL of 0.7% soft LB agar then poured onto a 1.5% LB agar base. The plates were allowed to cool and dry at room temperature for 20 min. The desired molecule was either spotted on a filter paper disk and placed on top of the agar or directly spotted on the agar. The following molecules were tested: ampicillin, 0.5 μL on filter disk, 1 μL directly spotted, 100 mg/mL; compound 1771/LtaS-IN-1, 4 μL, 20 mM (dissolved in DMSO); epilancin 15X, 4 μL, 5 mM; vancomycin, 1 μL, 100 mg/mL; nisin, 4 μL, 2 mM; bacitracin, 4 μL on filter disk, 5 μL directly spotted, 100 mg/mL; water, 5 μL; magainin 2, 10 μL, 1 mM; melittin, 10 μL, 1 mM. The plate was incubated at 37°C overnight. After overnight incubation, the plate was imaged. Compound 1771 (CS-0114233) was purchased from ChemScene LLC.
To investigate the effect of epilancin 15X on the cell envelope, we employed the two-component LiaRS reporter system in B. subtilis (lipid II cycle interfering antibiotic response regulator and sensor; [Mascher et al., 2004]). Briefly, the LiaRS assay is a disk diffusion assay used to screen for the ability of compounds to induce β-galactosidase expression in engineered B. subtilis BSF2470 ([Mascher et al., 2004]). Molecules that produce a blue ring around the edge of the zone of growth inhibition are believed to interfere with the lipid II cycle ([Hachmann et al., 2009]). […] The compound 1771, also called LtaS-IN-1, inhibits lipoteichoic acid (LTA) synthesis ([Richter et al., 2013]) and to the best of our knowledge has not been tested in the LiaRS assay.

[2] = tested on: protein biosynthesis in S. carnosus TM300; assay: Macromolecular synthesis assay: 14C-L-amino acids incorporation into protein; type: cell-based, Staphylococcus carnosus; conditions: S. carnosus TM300, 2× MIC, three independent experiments
Method: (§1) Radiolabel incorporation experiments were carried out similarly as previously described but using S. carnosus ([Wu et al., 2019]). The OD600 of parallel nonradioactive cultures was measured at each time point to normalize the measured radioactivity and minimize effects due to cell death and growth inhibition. The radiolabeled reagents and their corresponding positive and negative antibiotic controls were as follows. […] All experiments were conducted independently three times.
(§2) Figure S3. Thre e in de pen den t ex perime nts of incorporation of (A) 14C- acetic acid into fatty acids, (B) 14C- thymi din e into D NA, (C) 3H-uridi ne into RNA, (D) 14C- lab el ed ami no acids into protei n, and (E) 14C- label ed GlcNAc into cell w all in S. carnosus TM300 cells treated with vario u s antimicro bia l agents. T he p ercent i nco rpo ratio n at 0 min was measured after incubati ng the cel l cultur e with 0.8 μCi/mL radioactive precursors for 15 min. Then 0.5x, 1x, 2x, or 4x MIC epilanci n 15X and 2x MIC controls were added to the cell cultur e (t=0), and t he percent incorporation was measur ed ov er time. Positive controls a re gr een and negative controls are black (cells o nly) an d blu e (co mpo und w ith mo d e o f actio n unr elate d to th e a ssay i n que stio n). […]

[3] = tested on: cell wall biosynthesis in S. carnosus TM300; assay: Macromolecular synthesis assay: 14C-N-acetyl-D-glucosamine incorporation into cell wall; type: cell-based, Staphylococcus carnosus; conditions: S. carnosus TM300, three independent experiments
Method: as §1, §2

[4] = Liposome permeabilization (sulforhodamine B dye leakage) assay; type: biochemical
Method: For unilamellar liposome preparation, a total of 100 μL of 30 mM 1,2-dioleoyl-sn-glycero-3-phosphocholine (DOPC; Avanti Polar Lipids) and the following lipids dissolved in chloroform were mixed in a glass tube in the appropriate ratio: POPG (Avanti Polar Lipids), POPE (Avanti Polar Lipids), POPS (Avanti Polar Lipids), and purified S. aureus LTA (InvivoGen, catalog # tlrl-pslta). The solvent was evaporated under a stream of nitrogen gas and the glass vial was placed in a vacuum desiccator overnight. A total of 1 mL HEPES-Buffered Saline (HBS) composed of 5 mM HEPES (pH 7.6) and 150 mM NaCl, and 30 mM sulforhodamine B (SRB) was added to each vial. The lipid solution was vortexed for 10 min and lipids were hydrated by five freeze–thaw cycles with liquid N2. The lipid solution was diluted with HBS buffer to 3 mL and the solution was passed 29 times through a mini extruder (Avanti Polar Lipids) with a filter of […] pore diameter to form lipid vesicles of homogeneous size. The extruded solution was passed through Sephadex 50 resin to remove the free sulforhodamine B (liposomes eluted faster than the dye). The size of the liposomes was tested using dynamic light scattering (DLS, Malvern Zetasizer, Dr. Catherine J. Murphy lab, Department of Chemistry, UIUC) and analyzed using Zetasizer software. The DLS data quality was interpreted by the instrument through its embedded algorithm to confirm the data quality. The polydispersity index (PDI), which measures the size distributions was used to monitor the quality of the liposomes. The small PDI indices obtained from DLS readings indicate that the liposomes were monodisperse ([Farkas and Kramar, 2021]). The total lipid concentration was measured with NMR spectroscopy using a reported method ([Hein et al., 2016]). The vesicles were stored at 4°C and used within 1–2 days.
For the dye leakage assay, 100 μL SRB-loaded liposomes (80 μM lipid; 100–200 nm size) were placed in each well in a 96-well microplate. Fluorescence of SRB-loaded liposomes was monitored over time on a Synergy H4 Hybrid Multi-Mode Microplate Reader (BioTeK) using λEx at […]. To each well, a different concentration of peptides or 0.02% triton X-100 was added 5 min after adding liposomes. Liposomes supplied with water were treated as the negative control. The fluorescence emission was measured every 15 s for 2 h. Fluorescence counts were recorded as % leakage and plotted as a function of time. The concentration of epilancin 15X where the SRB leaked from the liposomes reached half of the triton X-100 leakage was recorded as C1/2, and C1/2 values were plotted against DOPC and supplemented lipid concentrations.

[5] = tested on: S. epidermidis ATCC 12228; assay: MIC determination in 96-well microtiter plate; type: cell-based, Staphylococcus epidermidis; conditions: 37°C, 10^5 CFU/mL, OD600 after 18 h

Epilancin 15X
LiaRS response (blue ring at the edge of the zone of inhibition) [1]: did not induce a LiaRS response
protein biosynthesis (14C-L-amino acid incorporation) [2]: considerably stronger effect than that observed with the respective negative controls
cell wall biosynthesis (14C-N-acetyl-D-glucosamine incorporation) [3]: no clear change
EC50 ([4]; DOPC liposomes supplemented with POPE, highest concentration tested 64 µM, read-out: C1/2 (concentration giving 50% of triton X-100 leakage)): > 64 µM
fluorescence emission from SRB dye leakage ([4]; DOPC liposomes with negatively charged lipids LTA, POPS, POPG): increased
SRB dye leakage from DOPC liposomes ([4]; DOPC only, 80 μM lipid, epilancin 15X up to 64 μM, fluorescence over 2 h): not detected
C1/2 values as a function of supplemented lipid concentration ([4]; negatively charged lipids S. aureus LTA, POPG, POPS): negative slope
SRB dye leakage from DOPC liposomes doped with POPE ([4]; neutral lipid POPE): not detected
liposome leakage as a function of supplemented lipid concentration ([4]; neutral lipids POPC and POPE): no change in liposome leakage
MIC [5]: 0.62 µM
